# pIC50: −log10 of the molar value.
# Tested on: LG0567-F671-PDC KRAS tumor spheroid viability
# Test: Anticancer human tumor LG0567-F671-PDC patient-derived lung adenocarcinoma cell line growth inhibition [KRAS2]
# Settings: spheroids with HUVEC and MSC; for pIC50: curve of first compound; for viability, T/C: stronger effect = lower value
# Summary of the method: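 KRAS-mutant tumor cells were grown as spheroids with HUVEC endothelial cells and human MSCs as stroma. Targeted agents were tested alone and with KRAS pathway inhibitors. Doses started at or near clinical Cmax, or 10 microM, descending half-log.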
# [1] = second compound 0.1 µM, first compound 0.0316 µM
# [2] = second compound 0.1 µM, first compound 0.1 µM
# [3] = second compound 0.1 µM, first compound 0.316 µM
# [4] = second compound 0.1 µM, first compound 1 µM
# [5] = second compound 0.1 µM, first compound 3.16 µM
# [6] = second compound 0.1 µM, first compound 10 µM
# [7] = second compound 0.316 µM, first compound 0.0316 µM
# [8] = second compound 0.316 µM, first compound 0.1 µM
# [9] = second compound 0.316 µM, first compound 0.316 µM
# [10] = second compound 0.316 µM, first compound 1 µM
# [11] = second compound 0.316 µM, first compound 3.16 µM
# [12] = second compound 0.316 µM, first compound 10 µM
# [13] = second compound 1 µM, first compound 0.0316 µM
# [14] = second compound 1 µM, first compound 0.1 µM
# [15] = second compound 1 µM, first compound 0.316 µM
# [16] = second compound 1 µM, first compound 1 µM
# [17] = second compound 1 µM, first compound 3.16 µM
# [18] = second compound 1 µM, first compound 10 µM
# [19] = second compound 3.16 µM, first compound 0.0316 µM
# [20] = second compound 3.16 µM, first compound 0.1 µM
# [21] = second compound 3.16 µM, first compound 0.316 µM
# [22] = second compound 3.16 µM, first compound 1 µM
# [23] = second compound 3.16 µM, first compound 3.16 µM
# [24] = second compound 3.16 µM, first compound 10 µM
# [25] = second compound 10 µM, first compound 0.0316 µM
# [26] = second compound 10 µM, first compound 0.1 µM
# [27] = second compound 10 µM, first compound 0.316 µM
# [28] = second compound 10 µM, first compound 1 µM
# [29] = second compound 10 µM, first compound 3.16 µM
# [30] = second compound 10 µM, first compound 10 µM
# 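Note: drug exposure lasted seven days after spheroids formed for three days.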
# 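Throughout, for viability, T/C: 100% = DMSO vehicle control viability.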
SMILES,pIC50 (second compound 0.1 µM),pIC50 (second compound 0.316 µM),pIC50 (second compound 1 µM),pIC50 (second compound 3.16 µM),pIC50 (second compound 10 µM),"viability, T/C [1]","viability, T/C [2]","viability, T/C [3]","viability, T/C [4]","viability, T/C [5]","viability, T/C [6]","viability, T/C [7]","viability, T/C [8]","viability, T/C [9]","viability, T/C [13]","viability, T/C [14]","viability, T/C [19]","viability, T/C [20]","viability, T/C [25]","viability, T/C [26]",also measured
COC(=O)c1ccc2c(C(=Nc3ccc(N(C)C(=O)CN4CCN(C)CC4)cc3)c3ccccc3)c(O)[nH]c2c1 + C=CC(=O)N1CCN(c2nc(=O)n(-c3c(C)ccnc3C(C)C)c3nc(-c4c(O)cccc4F)c(F)cc23)C(C)C1,> 7.50,> 7.50,> 7.50,> 7.50,> 7.50,23.1%,22%,25.9%,28.3%,30%,33%,20.8%,23.3%,20.1%,21.7%,22%,18.8%,18.8%,26.3%,24.4%,"viability, T/C [10]: 23.2%; viability, T/C [11]: 29.7%; viability, T/C [12]: 27.9%; viability, T/C [15]: 21.6%; viability, T/C [16]: 32%; viability, T/C [17]: 26.6%; viability, T/C [18]: 30.1%; viability, T/C [21]: 19.6%; viability, T/C [22]: 22.6%; viability, T/C [23]: 28%; viability, T/C [24]: 30.1%; viability, T/C [27]: 22.2%; viability, T/C [28]: 24.6%; viability, T/C [29]: 27.9%; viability, T/C [30]: 1.41%"
CN(C)C/C=C/C(=O)Nc1cc2c(Nc3ccc(F)c(Cl)c3)ncnc2cc1O[C@H]1CCOC1 + CNCc1ccccc1-c1csc(C(C)Nc2nc(C)nc3cc(OC)c(OC)cc23)c1,7.61,7.77,8.17,9.39,> 9.50,46.9%,51.3%,–,–,–,–,43.5%,53.1%,–,44.2%,37.4%,0.63%,0.28%,1.14%,0.66%,"viability, T/C (second compound 0.1 µM, first compound 0.000316 µM): 88%; viability, T/C (second compound 0.1 µM, first compound 0.001 µM): 71.5%; viability, T/C (second compound 0.1 µM, first compound 0.00316 µM): 65.5%; viability, T/C (second compound 0.1 µM, first compound 0.01 µM): 49%; viability, T/C (second compound 0.316 µM, first compound 0.000316 µM): 77.9%; viability, T/C (second compound 0.316 µM, first compound 0.001 µM): 72.8%; viability, T/C (second compound 0.316 µM, first compound 0.00316 µM): 59.7%; viability, T/C (second compound 0.316 µM, first compound 0.01 µM): 52%; viability, T/C (second compound 1 µM, first compound 0.000316 µM): 54.7%; viability, T/C (second compound 1 µM, first compound 0.001 µM): 61.3%; viability, T/C (second compound 1 µM, first compound 0.00316 µM): 49.4%; viability, T/C (second compound 1 µM, first compound 0.01 µM): 48.2%; viability, T/C (second compound 3.16 µM, first compound 0.000316 µM): 54.9%; viability, T/C (second compound 3.16 µM, first compound 0.001 µM): 31.7%; viability, T/C (second compound 3.16 µM, first compound 0.00316 µM): 0.31%; viability, T/C (second compound 3.16 µM, first compound 0.01 µM): 0.13%; viability, T/C (second compound 10 µM, first compound 0.000316 µM): 0.28%; viability, T/C (second compound 10 µM, first compound 0.001 µM): 0.22%; viability, T/C (second compound 10 µM, first compound 0.00316 µM): 0.1%; viability, T/C (second compound 10 µM, first compound 0.01 µM): 0.38%"
CC(C)NCC(C(=O)N1CCN(c2ncnc3c2C(C)CC3O)CC1)c1ccc(Cl)cc1 (stereo not given) + C=CC(=O)N1CCN(c2nc(=O)n(-c3c(C)ccnc3C(C)C)c3nc(-c4c(O)cccc4F)c(F)cc23)C(C)C1,> 7.50,> 7.50,> 7.50,> 7.50,> 7.50,31.4%,25.9%,19.8%,14%,14.5%,12.8%,26.5%,28.5%,20.9%,30.6%,26.5%,29.9%,21.2%,25.8%,17%,"viability, T/C [10]: 13.7%; viability, T/C [11]: 13.7%; viability, T/C [12]: 10.6%; viability, T/C [15]: 17%; viability, T/C [16]: 15.9%; viability, T/C [17]: 14.4%; viability, T/C [18]: 12.6%; viability, T/C [21]: 19.9%; viability, T/C [22]: 19.1%; viability, T/C [23]: 13.3%; viability, T/C [24]: 11.3%; viability, T/C [27]: 15.6%; viability, T/C [28]: 13.3%; viability, T/C [29]: 15%; viability, T/C [30]: 11%"
